From patent US8518953B2, “Aminopyrimidines useful as inhibitors of protein kinases” (Vertex Pharmaceuticals Incorporated, priority 2007, dated 2013)

System: rats subjected to MCAO
Experiment: Post Stroke Recovery MCAO Model: Forepaw Asymmetry (Cylinder Test)
Type: in vivo, rat
Conditions: low dose, 14 days after stroke
Description: Adult male Wistar rats are pre-trained on a battery of behavioral tests including: tray reach, […], forelimb asymmetry (cylinder bracing), forelimb inhibition (swim test) (see below for detailed description of tests). Following pre-stroke behavioral assessment the rats receive surgery during which a stroke is induced. The rats are pseudo-randomly divided into 5 equal groups (n=12) ensuring an equal number of right and left strokes within each treatment group. The first group receives sham surgery with vehicle as treatment. Administration of the test compound and vehicle (dose, route, timing) is determined by the sponsor. The core body temperature is maintained at 37° C. (+/-1°). Following surgery all animals are behaviorally assessed 1, 7, and 14 d post-stroke. At the conclusion of behavioral assessment all rats undergo an MRI to determine infarct volume. […] Rectal temperature is monitored and maintained at 37 C+/-1° C. for the duration of the surgery and until the rat is awake and mobile (approximately 3 hr). […] Forepaw asymmetry of the animals is measured by placing a rat into a clear acrylic cylinder 25 cm in diameter. […] The first paw that touches the cylinder wall during the rear is counted. […]

In the case of Cc1nc(-c2ccccc2Cl)nc(Nc2n[nH]c3ncc(F)cc23)c1C [Compound I-1, N-(2-(2-chlorophenyl)-5,6-dimethylpyrimidin-4-yl)-5-fluoro-1H-pyrazolo[3,4-b]pyridin-3-amine], the “deficit in forepaw asymmetry (cylinder test)” value is reported as “significantly ameliorated this deficit”.
